Source: US20250034216A1, “STEREOSELECTIVE COVALENT LIGANDS FOR ONCOGENIC AND IMMUNOLOGICAL PROTEINS” (The Scripps Research Institute, priority 2021, published 2025)

What was measured:
LMNA_C570 = target: T1, LMNA_C570 (Homo sapiens, UniProt P02545); assay: IA-DTB cysteine engagement; assay type: binding; details: 22Rv1 cells, 20 μM probe, 1 h, relative to DMSO
T1 construct: endogenous in cells; host or cells: 22Rv1
T1 sequence (P02545 1-664): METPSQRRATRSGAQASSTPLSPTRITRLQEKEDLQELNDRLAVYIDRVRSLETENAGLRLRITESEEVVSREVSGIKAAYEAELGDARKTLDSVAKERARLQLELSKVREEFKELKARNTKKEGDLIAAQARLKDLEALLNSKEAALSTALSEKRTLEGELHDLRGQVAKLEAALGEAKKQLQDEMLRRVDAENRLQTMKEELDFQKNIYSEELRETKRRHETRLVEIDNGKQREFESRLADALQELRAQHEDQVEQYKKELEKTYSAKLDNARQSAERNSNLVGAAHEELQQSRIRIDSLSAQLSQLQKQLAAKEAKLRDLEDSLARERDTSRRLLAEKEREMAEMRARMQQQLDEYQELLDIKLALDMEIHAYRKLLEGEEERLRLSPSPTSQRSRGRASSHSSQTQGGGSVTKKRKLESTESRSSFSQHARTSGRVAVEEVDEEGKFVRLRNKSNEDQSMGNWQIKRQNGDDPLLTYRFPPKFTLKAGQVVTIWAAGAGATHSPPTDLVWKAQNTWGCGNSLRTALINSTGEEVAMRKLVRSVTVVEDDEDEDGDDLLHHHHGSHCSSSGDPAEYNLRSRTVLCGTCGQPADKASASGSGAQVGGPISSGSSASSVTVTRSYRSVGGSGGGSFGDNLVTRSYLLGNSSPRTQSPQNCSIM
Method: (§1) Sample preparation: Cells (adherent: 15 cm dishes, suspension: 2 million cells/mL) were treated with electrophilic probes in situ for indicated times and concentrations, washed with ice-cold PBS, and flash frozen in liquid nitrogen. Cell pellets were lysed by sonication (8 pulses, 40% power) in 500 μL ice-cold PBS supplemented with cOmplete protease inhibitors (1 tablet/10 mL of PBS). Whole cell lysates protein content was measured using a standard DC protein assay (Bio-Rad) and 500 μL (2 mg/mL protein content) were treated with 5 μL of 10 mM 1A-DTB (in DMSO) for 1 h at ambient temperature with occasional vortexing. Samples were methanol-chloroform precipitated with the addition of 500 μL ice-cold MeOH and 200 μL CHCl3, vortexed, and centrifuged (10 min, 10,000 g). Without disrupting the protein disk, both top and bottom layers were aspirated and the protein disk was washed with 1 mL ice-cold MeOH and centrifuged (10 min, 10,000 g). The pellets were allowed to air dry, and then re-suspended in 90 μL buffer (9 M urea, 10 mM DTT, 50 mM TEAB pH 8.5). Samples were reduced by heating at 65 C for 20 minutes and water bath sonicated as needed to resuspend the protein pellets, followed by alkylation via addition of 10 μL (500 mM) iodoacetamide and incubated at 37 C for 30 min with shaking. Samples were briefly centrifuged, and probe sonicated once more to ensure complete resuspension, and then diluted with 300 μL buffer (50 mM TEAB pH 8.5) to reach final concentration of 2 M urea. Trypsin (4 μL of 0.25 μg/μL in trypsin resuspension buffer with 25 mM CaCl2)) was added to each sample and digested at 37 C for 2 h to overnight. Digested samples were then diluted with 300 μL wash buffer (50 mM TEAB pH 8.5, 150 mM NaCl, 0.2% NP-40) containing streptavidin-agarose beads (50 μL of 50% slurry in wash buffer) and were rotated at room temperature for 2 hours. Enriched samples were pelleted by centrifugation (2000 g, 2 min) and transferred to BioSpin columns and washed (3×1 mL wash buffer, 3×1 mL PBS, 3×1 mL water). Enriched peptides were eluted by 300 μL 50% acetonitrile with 0.1% formic acid and eluate was evaporated to dryness via speedvac. IA-DTB labeled and enriched peptides were resuspended in 100 μL EPPS buffer (200 mM, pH 8.0) with 30% acetonitrile, vortexed, and water bath sonicated. Samples were TMT labeled with 3 μL of corresponding TMT tag (5 mg tag resuspended in 256 μL acetonitrile), vortexed, and incubated at room temperature for 1 hour. TMT labeling was quenched with the addition of hydroxylamine (5 μL 5% solution in H2O) and incubated for 15 minutes at room temperature. Samples were then acidified with 5 μL formic acid, combined and dried using a SpeedVac. Samples were desalted via Sep-Pak and then high pH fractionated.
(§2) Data processing: Cysteine engagement ratios (probe vs DMSO) were calculated for each peptide-spectra match by dividing each TMT reporter ion intensity by the average intensity for the channels corresponding to DMSO treatment. Peptide-spectra matches were then grouped based on protein ID and residue number (e.g., PSME1 C22), excluding peptides with summed reporter ion intensities for the DMSO channels <10,000, coefficient of variation for DMSO channels >0.5, and non-tryptic peptide sequences. TMT reporter ion intensities were normalized to the median summed signal intensity across channels.
(§3) Filtering of cysteine data: Replicates were combined based on cell line and treatment condition (probe, concentration, duration) by averaging cysteine engagement ratios across all experiments.

CKAP4_C100 = target: T2, CKAP4_C100 (Homo sapiens, UniProt Q07065); assay: IA-DTB cysteine engagement; assay type: binding; details: 22Rv1 cells, 20 μM probe, 1 h, relative to DMSO
T2 construct: endogenous in cells; host or cells: 22Rv1
T2 sequence (Q07065 1-602): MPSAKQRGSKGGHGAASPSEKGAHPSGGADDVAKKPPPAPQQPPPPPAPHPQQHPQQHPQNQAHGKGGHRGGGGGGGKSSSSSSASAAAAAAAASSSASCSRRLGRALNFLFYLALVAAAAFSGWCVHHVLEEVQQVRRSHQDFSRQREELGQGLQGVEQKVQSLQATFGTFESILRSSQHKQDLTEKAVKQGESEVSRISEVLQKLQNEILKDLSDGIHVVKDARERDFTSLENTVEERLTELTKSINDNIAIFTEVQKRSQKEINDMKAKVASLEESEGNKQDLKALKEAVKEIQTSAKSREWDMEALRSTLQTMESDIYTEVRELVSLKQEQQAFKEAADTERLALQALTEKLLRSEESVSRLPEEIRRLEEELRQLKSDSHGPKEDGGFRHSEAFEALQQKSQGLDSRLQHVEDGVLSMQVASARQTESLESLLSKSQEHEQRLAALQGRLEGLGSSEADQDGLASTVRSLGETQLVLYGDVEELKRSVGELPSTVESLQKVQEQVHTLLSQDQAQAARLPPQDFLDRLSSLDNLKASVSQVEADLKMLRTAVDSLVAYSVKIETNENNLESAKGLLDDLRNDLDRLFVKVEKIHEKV
Method: as §1, §2, §3

## C=CC(=O)N1C[C@@H](c2ccc(Br)cc2)[C@H]1C(=O)Nc1cccc2cccnc12 [MY-1A, (2S,3R)-1-acryloyl-3-(4-bromophenyl)-N-(quinolin-8-yl)azetidine-2-carboxamide]
LMNA_C570
  % engagement LMNA_C570: 75%
CKAP4_C100
  % engagement CKAP4_C100: 84%

## C=CC(=O)N1C[C@H](c2ccc(Br)cc2)[C@@H]1C(=O)Nc1cccc2cccnc12 [MY-1B, (2R,3S)-1-acryloyl-3-(4-bromophenyl)-N-(quinolin-8-yl)azetidine-2-carboxamide]
LMNA_C570
  % engagement LMNA_C570: 70.5%
CKAP4_C100
  % engagement CKAP4_C100: 90.25%

## C=CC(=O)N1C[C@H](c2ccc(Br)cc2)[C@H]1C(=O)Nc1cccc2cccnc12 [MY-3A, (2S,3S)-1-acryloyl-3-(4-bromophenyl)-N-(quinolin-8-yl)azetidine-2-carboxamide]
LMNA_C570
  % engagement LMNA_C570: 75.5%
CKAP4_C100
  % engagement CKAP4_C100: 78.75%

## C=CC(=O)N1C[C@H](c2ccc(Br)cc2)[C@H]1C(=O)Nc1cccc2cccnc12 [MY-3B, (2S,3S)-1-acryloyl-3-(4-bromophenyl)-N-(quinolin-8-yl)azetidine-2-carboxamide]
LMNA_C570
  % engagement LMNA_C570: 70.5%
CKAP4_C100
  % engagement CKAP4_C100: 93.75%
